# Activity calls are given as the source filed them. No cut-off for these calls is given here.
# Key:
# [1] = molecular target: Histone-lysine N-methyltransferase SUV39H2 (Homo sapiens) (UniProt Q9H5I1); experiment: Inhibition of SUV39H2 (unknown origin) at 10 uM using SAM as substrate measured up to 960 mins by AlphaScreen microplate reader assay relative to control; conditions: time min <=960
# KARPAS-422 [2] = experiment: Antitumor activity against human KARPAS-422 cells harboring EZH2 Y641N mutant xenografted in NCG mouse assessed as tumor growth inhibition at 50 mg/kg, po BID via gavage measured after 28 days relative to control; format: functional; conditions: KARPAS-422, po, 672 h, time 28 day, read-out: TGI
# [3] = Apparent volume of distribution in rat at 10 mg/kg, po; format: ADME, organism-based; conditions: in vivo
# [4] = molecular target: Protein arginine N-methyltransferase 3 (Homo sapiens) (UniProt O60678); experiment: Inhibition of PRMT3 (unknown origin) at 10 uM using SAM as substrate measured up to 960 mins by AlphaScreen microplate reader assay relative to control; conditions: time min <=960
# [5] = Toxicity in NCG mouse xenografted with human KARPAS-422 cells harboring EZH2 Y641N mutant assessed as effect on body weight at 50 to 200 mg/kg, po BID via gavage measured after 28 days; format: organism-based; conditions: in vivo, 672 h, dose 50-200 mg/kg, time 28 day
# [6] = Antiproliferative activity against human WSUDLCL2 cells assessed as inhibition of cell growth measured after 6 days by CellTiter-Glo luminescent assay; format: functional; conditions: WSUDLCL2, 144 h, time 6 day
# [7] = AUC (0 to infinity) in mouse at 1 mg/kg, iv measured up to 24 hrs by LC-MS/MS analysis; format: ADME, organism-based; parameters: route intravenous, dose 1 mg/kg, time <=24; conditions: in vivo
# [8] = Apparent volume of distribution in mouse at 1 mg/kg, iv measured up to 24 hrs by LC-MS/MS analysis; format: ADME, organism-based; conditions: in vivo
# Pfeiffer [9] = experiment: Antiproliferative activity against human Pfeiffer cells harboring EZH2 A677G mutant assessed as inhibition of cell growth measured after 6 days by CellTiter-Glo luminescent assay; format: functional; conditions: 144 h, time 6 day
# [10] = AUC (0 to infinity) in mouse at 10 mg/kg, po measured up to 24 hrs by LC-MS/MS analysis; format: ADME, organism-based; parameters: route oral, dose 10 mg/kg, time <=24; conditions: in vivo
# [11] = system: Histone-lysine N-methyltransferase EZH2 (Homo sapiens), Q15910 [Y641C]; experiment: Inhibition of EZH2 Y641C mutant (unknown origin) at 10 uM using SAM as substrate measured up to 960 mins by AlphaScreen microplate reader assay relative to control; conditions: time min <=960
# Daudi = experiment: Antiproliferative activity against human Daudi cells expressing wild type EZH2 assessed as inhibition of cell growth measured after 6 days by CellTiter-Glo luminescent assay; conditions: 144 h
# [12] = Cmax in rat at 1 mg/kg, iv; format: ADME, organism-based; parameters: route intravenous, dose 1 mg/kg; conditions: in vivo
# [13] = Half life in rat at 1 mg/kg, iv; format: ADME, organism-based; conditions: in vivo
# KARPAS-422 [14] = experiment: Antitumor activity against human KARPAS-422 cells harboring EZH2 Y641N mutant xenografted in NCG mouse assessed as change in tumor weight at 100 mg/kg, po BID via gavage measured after 28 days (reference value: 2.14 g); format: functional; conditions: time 28 day
# Pfeiffer [15] = experiment: Antitumor activity against human Pfeiffer cells harboring EZH2 A677G mutant xenografted in NCG mouse assessed as tumor growth inhibition at 100 mg/kg, po BID via gavage measured after 28 days relative to control; format: functional; conditions: 672 h, time 28 day, read-out: TGI
# U2932 = experiment: Antiproliferative activity against human U2932 cells expressing wild type EZH2 assessed as inhibition of cell growth measured after 6 days by CellTiter-Glo luminescent assay; format: functional; conditions: U2932, 144 h, time 6 day
# [16] = molecular target: Histone-lysine N-methyltransferase SETDB1 (Homo sapiens) (UniProt Q15047); experiment: Inhibition of SETDB1 (unknown origin) at 10 uM using SAM as substrate measured up to 960 mins by AlphaScreen microplate reader assay relative to control; conditions: time min <=960
# Pfeiffer [17] = experiment: Antitumor activity against human Pfeiffer cells harboring EZH2 A677G mutant xenografted in NCG mouse assessed as tumor growth inhibition at 50 mg/kg, po BID via gavage measured after 28 days relative to control; format: functional; conditions: 672 h, time 28 day, read-out: TGI
# [18] = Clearance in mouse at 1 mg/kg, iv measured up to 24 hrs by LC-MS/MS analysis; format: ADME, organism-based; conditions: in vivo
# KARPAS-422 [19] = experiment: Antitumor activity against human KARPAS-422 cells harboring EZH2 Y641N mutant xenografted in NCG mouse assessed as tumor regression at 200 mg/kg, po BID via gavage measured within 10 days; format: functional, organism-based; conditions: time day <10
# [20] = Clearance in rat at 1 mg/kg, iv; format: ADME, organism-based; conditions: in vivo
# [21] = molecular target: Histone-lysine N-methyltransferase KMT5B (Homo sapiens) (UniProt Q4FZB7); experiment: Inhibition of SUV4-20H1 (unknown origin) at 10 uM using SAM as substrate measured up to 960 mins by AlphaScreen microplate reader assay relative to control; conditions: time min <=960
# [22] = Cmax in rat at 10 mg/kg, po; format: ADME, organism-based; parameters: route oral, dose 10 mg/kg; conditions: in vivo
# KARPAS-422 [23] = experiment: Antitumor activity against human KARPAS-422 cells harboring EZH2 Y641N mutant xenografted in NCG mouse assessed as tumor growth inhibition at 100 mg/kg, po BID via gavage measured after 28 days relative to control; format: functional; conditions: KARPAS-422, po, 672 h, time 28 day, read-out: TGI
# [24] = Cmax in mouse at 10 mg/kg, po measured up to 24 hrs by LC-MS/MS analysis; format: ADME, organism-based; parameters: route oral, dose 10 mg/kg, time <=24; conditions: in vivo
# [25] = Antiproliferative activity against human WSUDLCL2 cells harboring EZH2 Y641F mutant assessed as inhibition of cell growth measured after 6 days by CellTiter-Glo luminescent assay; format: functional; conditions: WSUDLCL2, 144 h, time 6 day
# [26] = Apparent volume of distribution in rat at 1 mg/kg, iv; format: ADME, organism-based; conditions: in vivo, read-out: Vz
# [27] = system: Histone-lysine N-methyltransferase EZH2 (Homo sapiens), Q15910 [Y641N]; experiment: Inhibition of EZH2 Y641N mutant (unknown origin) at 10 uM using SAM as substrate measured up to 960 mins by AlphaScreen microplate reader assay relative to control; conditions: time min <=960
# SUD4 = experiment: Antiproliferative activity against human SU-DHL-4 cells harboring EZH2 Y641S mutant assessed as inhibition of cell growth measured after 6 days by CellTiter-Glo luminescent assay; format: functional; conditions: SU-DHL-4, 144 h, time 6 day
# Homo sapiens = species on record: Homo sapiens; experiment: Inhibition of EZH2 (unknown origin) interaction with EED (unknown origin) at 10 uM relative to control
# [28] = molecular target: Protein arginine N-methyltransferase 8 (Homo sapiens) (UniProt Q9NR22); experiment: Inhibition of PRMT8 (unknown origin) at 10 uM using SAM as substrate measured up to 960 mins by AlphaScreen microplate reader assay relative to control; conditions: time min <=960
# [29] = AUC (0 to t) in mouse at 10 mg/kg, po measured up to 24 hrs by LC-MS/MS analysis; format: ADME, organism-based; parameters: route oral, dose 10 mg/kg, time <=24; conditions: in vivo
# KARPAS-422 [30] = experiment: Antitumor activity against human KARPAS-422 cells harboring EZH2 Y641N mutant xenografted in NCG mouse assessed as change in tumor weight at 200 mg/kg, po BID via gavage measured after 28 days (reference value: 2.14 g); format: functional; conditions: time 28 day
# Histone-lysine N-methyltransferase KMT5B (Homo sapiens), sequence (Q4FZB7 whole entry, looked up): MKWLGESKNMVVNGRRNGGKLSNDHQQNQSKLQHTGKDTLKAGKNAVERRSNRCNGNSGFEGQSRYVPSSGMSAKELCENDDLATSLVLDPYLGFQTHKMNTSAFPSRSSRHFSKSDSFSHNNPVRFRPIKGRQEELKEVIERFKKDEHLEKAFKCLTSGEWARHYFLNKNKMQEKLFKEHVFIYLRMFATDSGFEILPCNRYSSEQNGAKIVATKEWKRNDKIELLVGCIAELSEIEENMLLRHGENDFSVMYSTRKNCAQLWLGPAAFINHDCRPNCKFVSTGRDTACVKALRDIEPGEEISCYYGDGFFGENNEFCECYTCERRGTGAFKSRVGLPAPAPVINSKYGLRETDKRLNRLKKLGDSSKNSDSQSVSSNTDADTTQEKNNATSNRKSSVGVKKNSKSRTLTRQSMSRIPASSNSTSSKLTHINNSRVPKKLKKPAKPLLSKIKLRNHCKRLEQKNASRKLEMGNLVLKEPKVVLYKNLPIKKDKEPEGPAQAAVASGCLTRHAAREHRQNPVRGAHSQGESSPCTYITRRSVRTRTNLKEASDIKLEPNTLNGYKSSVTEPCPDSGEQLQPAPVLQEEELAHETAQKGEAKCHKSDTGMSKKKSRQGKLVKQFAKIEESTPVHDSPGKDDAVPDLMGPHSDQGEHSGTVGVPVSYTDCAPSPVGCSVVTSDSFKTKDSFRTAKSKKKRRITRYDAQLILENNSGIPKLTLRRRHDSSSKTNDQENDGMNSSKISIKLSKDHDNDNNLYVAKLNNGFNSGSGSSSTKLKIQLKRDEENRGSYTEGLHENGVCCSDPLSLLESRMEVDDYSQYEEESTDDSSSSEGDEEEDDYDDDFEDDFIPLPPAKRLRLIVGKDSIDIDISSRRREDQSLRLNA
# Histone-lysine N-methyltransferase EZH2 (Homo sapiens), Q15910 [Y641N], sequence (Q15910 whole entry Y641N): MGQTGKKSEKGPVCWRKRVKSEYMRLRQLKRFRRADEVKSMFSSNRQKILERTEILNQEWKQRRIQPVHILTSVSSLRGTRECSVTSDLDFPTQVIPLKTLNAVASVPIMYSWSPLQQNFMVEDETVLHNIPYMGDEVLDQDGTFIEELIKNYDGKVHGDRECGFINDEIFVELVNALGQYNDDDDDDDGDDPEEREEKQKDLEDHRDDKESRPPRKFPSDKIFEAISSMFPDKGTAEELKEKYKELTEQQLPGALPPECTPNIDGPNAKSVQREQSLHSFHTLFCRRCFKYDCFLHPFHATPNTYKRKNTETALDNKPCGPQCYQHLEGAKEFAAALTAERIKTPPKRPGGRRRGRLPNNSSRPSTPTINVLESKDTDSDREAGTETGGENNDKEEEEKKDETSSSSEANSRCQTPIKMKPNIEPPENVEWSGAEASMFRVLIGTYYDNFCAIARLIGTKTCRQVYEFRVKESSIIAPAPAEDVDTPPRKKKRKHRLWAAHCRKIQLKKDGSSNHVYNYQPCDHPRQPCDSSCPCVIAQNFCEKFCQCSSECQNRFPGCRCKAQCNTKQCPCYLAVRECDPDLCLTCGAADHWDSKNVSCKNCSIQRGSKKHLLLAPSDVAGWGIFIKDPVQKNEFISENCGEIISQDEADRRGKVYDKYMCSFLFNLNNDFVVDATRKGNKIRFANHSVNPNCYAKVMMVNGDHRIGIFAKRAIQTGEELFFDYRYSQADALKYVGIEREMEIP
# Protein arginine N-methyltransferase 3 (Homo sapiens), sequence (O60678 2-531 limits assumed): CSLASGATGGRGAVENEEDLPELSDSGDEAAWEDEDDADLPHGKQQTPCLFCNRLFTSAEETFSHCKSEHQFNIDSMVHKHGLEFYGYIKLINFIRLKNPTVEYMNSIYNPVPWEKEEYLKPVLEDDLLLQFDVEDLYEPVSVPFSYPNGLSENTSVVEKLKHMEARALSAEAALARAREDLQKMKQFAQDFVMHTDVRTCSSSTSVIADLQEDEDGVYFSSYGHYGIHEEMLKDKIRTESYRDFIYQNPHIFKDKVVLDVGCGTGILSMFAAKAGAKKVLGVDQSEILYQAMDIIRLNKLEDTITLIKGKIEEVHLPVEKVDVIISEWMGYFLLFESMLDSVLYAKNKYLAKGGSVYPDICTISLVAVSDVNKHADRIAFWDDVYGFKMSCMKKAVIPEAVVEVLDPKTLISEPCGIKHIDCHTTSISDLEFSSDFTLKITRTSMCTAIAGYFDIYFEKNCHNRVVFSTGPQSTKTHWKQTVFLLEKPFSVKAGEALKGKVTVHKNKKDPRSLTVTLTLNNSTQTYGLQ
# Histone-lysine N-methyltransferase EZH2 (Homo sapiens), Q15910 [Y641C], sequence (Q15910 whole entry Y641C): as the sequence (Q15910 whole entry Y641N) above, with N641C counted along it
# Histone-lysine N-methyltransferase SUV39H2 (Homo sapiens), sequence (Q9H5I1 whole entry): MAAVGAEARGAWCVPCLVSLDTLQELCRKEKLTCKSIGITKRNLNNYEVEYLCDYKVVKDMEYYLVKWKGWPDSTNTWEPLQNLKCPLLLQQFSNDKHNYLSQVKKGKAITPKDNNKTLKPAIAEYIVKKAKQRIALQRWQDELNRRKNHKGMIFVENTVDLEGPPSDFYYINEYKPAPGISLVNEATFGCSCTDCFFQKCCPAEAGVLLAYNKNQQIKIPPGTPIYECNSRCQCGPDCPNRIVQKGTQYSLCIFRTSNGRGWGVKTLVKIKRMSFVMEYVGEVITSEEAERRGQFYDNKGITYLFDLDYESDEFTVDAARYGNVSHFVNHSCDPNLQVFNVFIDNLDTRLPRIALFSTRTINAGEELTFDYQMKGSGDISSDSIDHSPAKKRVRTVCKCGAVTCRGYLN
# Protein arginine N-methyltransferase 8 (Homo sapiens), sequence (Q9NR22 2-394 limits assumed): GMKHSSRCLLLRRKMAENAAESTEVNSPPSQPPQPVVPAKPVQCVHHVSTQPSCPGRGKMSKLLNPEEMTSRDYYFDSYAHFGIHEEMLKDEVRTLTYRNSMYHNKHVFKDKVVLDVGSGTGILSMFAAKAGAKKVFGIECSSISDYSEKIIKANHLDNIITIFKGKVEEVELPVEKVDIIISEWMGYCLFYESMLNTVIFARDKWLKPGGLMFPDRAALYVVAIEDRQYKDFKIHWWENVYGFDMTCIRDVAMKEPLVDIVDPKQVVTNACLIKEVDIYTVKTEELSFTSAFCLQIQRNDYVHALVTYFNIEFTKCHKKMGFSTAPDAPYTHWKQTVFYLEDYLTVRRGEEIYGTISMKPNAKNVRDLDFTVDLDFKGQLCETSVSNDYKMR
structure (smiles),measurement,setting,value
CCN(C(=O)C1CC1)c1cc(-c2ccc(N3CCN(CC4CC4)CC3)nc2C)cc(C(=O)NCc2c(C)cc(C)[nH]c2=O)c1C,inhibition,[1],8%
same,inhibition in vivo at 50 mg/kg,KARPAS-422 [2],47.7%
same,Vz,[3],36.559 L/kg
same,inhibition,[4],0%
same,Activity,[5],Non-Toxic
same,GI50,[6],0.2 µM
same,AUC(0-inf),[7],372 ng·h/mL
same,Vz,[8],20.833 L/kg
same,GI50,Pfeiffer [9],0.003 µM
same,AUC(0-inf),[10],1000 ng·h/mL
same,inhibition,[11],95%
same,GI50,Daudi,> 10 µM
same,Cmax,[12],406 ng/mL
same,half-life,[13],1.82 h
same,Activity,KARPAS-422 [14],0.64 g
same,inhibition in vivo at 100 mg/kg,Pfeiffer [15],100%
same,GI50,U2932,> 10 µM
same,inhibition,[16],1%
same,inhibition in vivo at 50 mg/kg,Pfeiffer [17],91.8%
same,CL,[18],44.75 mL/min/kg
same,Activity,KARPAS-422 [19],Active
same,clearance,[20],85.5 mL/min/kg
same,inhibition,[21],0%
same,Cmax,[22],240 ng/mL
same,inhibition in vivo at 100 mg/kg,KARPAS-422 [23],70.1%
same,Cmax,[24],671 ng/mL
same,GI50,[25],0.14 µM
same,Vd,[26],9.1 L/kg
same,inhibition,[27],98%
same,GI50,SUD4,3.87 µM
same,inhibition,Homo sapiens,21%
same,inhibition,[28],0%
same,AUC(0-t) at 24 h,[29],1000 ng·h/mL
same,Activity,KARPAS-422 [30],0.057 g
